Each compound was assayed against T1, BACE2 (Homo sapiens, UniProt Q9Y5Z0) (assay: Fluorescent-peptide cleavage assay for BACE2 inhibition). Settings: BACE2 enzyme ectodomain, fluorescent peptide WS EVNLD AEFRC-MR121, assay buffer pH 4.5, room temperature.
T1 construct: BACE2 enzyme ectodomain (derived from plasmid “pET17b-T7-hu proBACE2”) was prepared as described in Ostermann et al; T7 tag (N); made in house
T1 sequence (Q9Y5Z0 21-473 limits assumed): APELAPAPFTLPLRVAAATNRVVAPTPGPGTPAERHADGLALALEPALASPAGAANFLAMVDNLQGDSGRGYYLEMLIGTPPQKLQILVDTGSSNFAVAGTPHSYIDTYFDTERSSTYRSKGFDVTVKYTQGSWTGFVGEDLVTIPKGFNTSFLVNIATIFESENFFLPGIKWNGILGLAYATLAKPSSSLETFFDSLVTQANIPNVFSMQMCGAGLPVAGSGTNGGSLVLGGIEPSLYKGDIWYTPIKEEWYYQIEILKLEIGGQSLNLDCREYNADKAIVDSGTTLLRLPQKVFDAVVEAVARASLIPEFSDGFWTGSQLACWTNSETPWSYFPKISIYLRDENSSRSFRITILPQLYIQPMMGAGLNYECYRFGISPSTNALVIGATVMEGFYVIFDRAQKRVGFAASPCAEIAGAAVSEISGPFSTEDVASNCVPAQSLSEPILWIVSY
Format: biochemical
Method: Fluorescent-Peptide Cleavage Assay for BACE2 Inhibition
The pro-enzyme was stored at 4° C. at a concentration of 70 μg/ml.
A fluorescent peptide with the amino acid sequence WS EVNLD AEFRC-MR121 was synthesised and a stock solution of 1.5 mM in DMSO prepared and stored at −20° C. MR121 is a fluorophore with an excitation wavelength of 630 nm and emission wavelength of 695 nm. The MR121 fluorescence is quenched by the N-terminal tryptophan until the peptide is cleaved by BACE2.
Assays were all made in a Corning 384-well black polystyrene non-binding surface microtitre plate with clear flat bottom and using a Plate:Vision (Perkin Elmer) fluorescence reader. To perform the assay an 80 nM solution of BACE2 was prepared in assay buffer (assay buffer is 100 mM Na-acetate; 20 mM EDTA; 0.05% BSA; pH 4.5) and incubated at room temperature for 1 hour to activate the enzyme. 39 μl of the activated BACE2 was placed in each assay well, followed by 1 μl compound to be tested at an appropriate concentration in 100% DMSO. The plate was then mixed and incubated for 10 minutes at room temperature.
The assay readout is the rate of change of fluorescence intensity giving a relative measure of BACE2 activity. Small values correspond to high inhibition and larger values to low inhibition. […] IC50 values were determined using these assay values generated for a range of inhibitor concentrations and the curve fitting software XLfit (IDBS) using the Sigmoidal Dose-Response Model.

Compound	IC50 [nM]
CCCOc1cccnc1C(=O)Nc1cccc([C@]2(C)CC(=O)N(C)C(N)=N2)c1 [Example 55, 3-Propoxy-pyridine-2-carboxylic acid [3-((S)-2-amino-1,4-dimethyl-6-oxo-1,4,5,6-tetrahydro-pyrimidin-4-yl)-phenyl]-amide]	349
CN1C(=O)C[C@@](C)(c2cccc(NC(=O)c3nccc4ccccc34)c2)N=C1N [Example 56, Isoquinoline-1-carboxylic acid [3-((S)-2-amino-1,4-dimethyl-6-oxo-1,4,5,6-tetrahydro-pyrimidin-4-yl)-phenyl]-amide]	2980
CN1C(=O)C[C@@](C)(c2cccc(NC(=O)c3cc4ccccc4cn3)c2)N=C1N [Example 57, Isoquinoline-3-carboxylic acid [3-((S)-2-amino-1,4-dimethyl-6-oxo-1,4,5,6-tetrahydro-pyrimidin-4-yl)-phenyl]amide]	110
CN1C(=O)C[C@@](C)(c2cccc(NC(=O)c3ccc4ccccc4n3)c2)N=C1N [Example 58, Quinoline-2-carboxylic acid [3-((S)-2-amino-1,4-dimethyl-6-oxo-1,4,5,6-tetrahydro-pyrimidin-4-yl)-phenyl]-amide]	410
CN1C(=O)C[C@@](C)(c2cccc(NC(=O)c3ccc4sccc4n3)c2)N=C1N [Example 59, Thieno[3,2-b]pyridine-5-carboxylic acid [3-((S)-2-amino-1,4-dimethyl-6-oxo-1,4,5,6-tetrahydro-pyrimidin-4-yl)-phenyl]-amide]	1700
CN1C(=O)C[C@@](C)(c2cccc(NC(=O)c3nccc4ccsc34)c2)N=C1N [Example 60, Thieno[2,3-c]pyridine-7-carboxylic acid [3-((S)-2-amino-1,4-dimethyl-6-oxo-1,4,5,6-tetrahydro-pyrimidin-4-yl)-phenyl]-amide]	240
CN1C(=O)C[C@@](C)(c2cccc(NC(=O)c3ncccc3Sc3ccccc3)c2)N=C1N [Example 61, 3-Phenylsulfanyl-pyridine-2-carboxylic acid [3-((S)-2-amino-1,4-dimethyl-6-oxo-1,4,5,6-tetrahydro-pyrimidin-4-yl)-phenyl]-amide]	240
CN1C(=O)C[C@@](C)(c2cccc(NC(=O)c3ncccc3C(F)(F)F)c2)N=C1N [Example 62, 3-Trifluoromethyl-pyridine-2-carboxylic acid [3-((S)-2-amino-1,4-dimethyl-6-oxo-1,4,5,6-tetrahydro-pyrimidin-4-yl)-phenyl]-amide]	150
CN1C(=O)C[C@@](C)(c2cccc(NC(=O)c3ccc(OCC(F)(F)F)cn3)c2)N=C1N [Example 63, 5-(2,2,2-Trifluoro-ethoxy)-pyridine-2-carboxylic acid [3-((S)-2-amino-1,4-dimethyl-6-oxo-1,4,5,6-tetrahydro-pyrimidin-4-yl)-phenyl]-amide]	60
CN1C(=O)C[C@@](C)(c2cccc(NC(=O)c3ncc(Cl)cc3Cl)c2)N=C1N [Example 64, 3,5-Dichloro-pyridine-2-carboxylic acid [3-((S)-2-amino-1,4-dimethyl-6-oxo-1,4,5,6-tetrahydro-pyrimidin-4-yl)-phenyl]-amide]	60
COc1cccnc1C(=O)Nc1cccc([C@]2(C)CC(=O)N(C)C(N)=N2)c1 [Example 65, 3-Methoxy-pyridine-2-carboxylic acid [3-((S)-2-amino-1,4-dimethyl-6-oxo-1,4,5,6-tetrahydro-pyrimidin-4-yl)-phenyl]-amide]	160
CN1C(=O)C[C@@](C)(c2cccc(NC(=O)c3csc(C(F)(F)F)n3)c2)N=C1N [Example 66, 2-Trifluoromethyl-thiazole-4-carboxylic acid [3-((S)-2-amino-1,4-dimethyl-6-oxo-1,4,5,6-tetrahydro-pyrimidin-4-yl)-phenyl]-amide]	1550
Cc1nc(C(=O)Nc2cccc([C@]3(C)CC(=O)N(C)C(N)=N3)c2)cs1 [Example 67, 2-Methyl-thiazole-4-carboxylic acid [3-((S)-2-amino-1,4-dimethyl-6-oxo-1,4,5,6-tetrahydro-pyrimidin-4-yl)-phenyl]-amide]	160
CN1C(=O)C[C@@](C)(c2cccc(NC(=O)c3cc4ccccc4s3)c2)N=C1N [Example 68, Benzo[b]thiophene-2-carboxylic acid [3-((S)-2-amino-1,4-dimethyl-6-oxo-1,4,5,6-tetrahydro-pyrimidin-4-yl)-phenyl]-amide]	102
CN1C(=O)C[C@@](C)(c2cccc(NC(=O)c3ccn(C)n3)c2)N=C1N [Example 69, 1-Methyl-1H-pyrazole-3-carboxylic acid [3-((S)-2-amino-1,4-dimethyl-6-oxo-1,4,5,6-tetrahydro-pyrimidin-4-yl)-phenyl]-amide]	61
CN1C(=O)C[C@@](C)(c2cccc(NC(=O)c3ncc(C(F)(F)F)cc3Cl)c2)N=C1N [Example 70, 3-Chloro-5-trifluoromethyl-pyridine-2-carboxylic acid [3-((S)-2-amino-1,4-dimethyl-6-oxo-1,4,5,6-tetrahydro-pyrimidin-4-yl)-phenyl]-amide]	16
CN1C(=O)C[C@@](C)(c2cccc(NC(=O)c3coc(-c4ccccc4)n3)c2)N=C1N [Example 71, 2-Phenyl-oxazole-4-carboxylic acid [3-((S)-2-amino-1,4-dimethyl-6-oxo-1,4,5,6-tetrahydro-pyrimidin-4-yl)-phenyl]-amide]	1310
CN1C(=O)C[C@@](C)(c2cccc(NC(=O)c3nc(Cl)ccc3C(F)(F)F)c2)N=C1N [Example 72, 6-Chloro-3-trifluoromethyl-pyridine-2-carboxylic acid [3-((S)-2-amino-1,4-dimethyl-6-oxo-1,4,5,6-tetrahydro-pyrimidin-4-yl)-phenyl]-amide]	1520
CN1C(=O)C[C@@](C)(c2cccc(NC(=O)c3ccn(CC(F)(F)F)n3)c2)N=C1N [Example 73, 1-(2,2,2-Trifluoro-ethyl)-1H-pyrazole-3-carboxylic acid [3-((S)-2-amino-1,4-dimethyl-6-oxo-1,4,5,6-tetrahydro-pyrimidin-4-yl)-phenyl]-amide]	2070
CCOc1cc(C(F)(F)F)cnc1C(=O)Nc1cccc([C@]2(C)CC(=O)N(C)C(N)=N2)c1 [Example 74, 3-Ethoxy-5-trifluoromethyl-pyridine-2-carboxylic acid [3-((S)-2-amino-1,4-dimethyl-6-oxo-1,4,5,6-tetrahydro-pyrimidin-4-yl)-phenyl]-amide]	79
Cc1cc(Cl)cnc1C(=O)Nc1cccc([C@]2(C)CC(=O)N(C)C(N)=N2)c1 [Example 75, 5-Chloro-3-methyl-pyridine-2-carboxylic acid [3-((S)-2-amino-1,4-dimethyl-6-oxo-1,4,5,6-tetrahydro-pyrimidin-4-yl)-phenyl]-amide]	17
CN1C(=O)C[C@@](C)(c2cccc(NC(=O)c3ccc(-n4ccc(C(F)(F)F)n4)cn3)c2)N=C1N [Example 76, 5-(3-Trifluoromethyl-pyrazol-1-yl)-pyridine-2-carboxylic acid [3-((S)-2-amino-1,4-dimethyl-6-oxo-1,4,5,6-tetrahydro-pyrimidin-4-yl)-phenyl]-amide]	300
Cc1nn(C)cc1C(=O)Nc1cccc([C@]2(C)CC(=O)N(C)C(N)=N2)c1 [Example 77, 1,3-Dimethyl-1H-pyrazole-4-carboxylic acid [3-((S)-2-amino-1,4-dimethyl-6-oxo-1,4,5,6-tetrahydro-pyrimidin-4-yl)-phenyl]-amide]	1580
CN1C(=O)C[C@@](C)(c2cccc(NC(=O)c3cc4cccnc4[nH]3)c2)N=C1N [Example 78, 1H-Pyrrolo[2,3-b]pyridine-2-carboxylic acid [3-((S)-2-amino-1,4-dimethyl-6-oxo-1,4,5,6-tetrahydro-pyrimidin-4-yl)-phenyl]-amide]	800
Cc1cc(C(=O)Nc2cccc([C@]3(C)CC(=O)N(C)C(N)=N3)c2)n(C2CC2)n1 [Example 79, 2-Cyclopropyl-5-methyl-2H-pyrazole-3-carboxylic acid [3-((S)-2-amino-1,4-dimethyl-6-oxo-1,4,5,6-tetrahydro-pyrimidin-4-yl)-phenyl]-amide]	190
CN1C(=O)C[C@@](C)(c2cccc(NC(=O)c3ccccc3-c3ncc[nH]3)c2)N=C1N [Example 80, N-[3-((S)-2-Amino-1,4-dimethyl-6-oxo-1,4,5,6-tetrahydro-pyrimidin-4-yl)-phenyl]-2-(1H-imidazol-2-yl)-benzamide]	2100

From patent US8461160B2, “Dihydropyrimidinones” (Hoffmann-La Roche, Inc., priority 2009, dated 2013)
